Measurements as given in ChEMBL document CHEMBL5252556, “Fuligopyrones from the Fruiting Bodies of Myxomycete Fuligo septica Offer Short-Term Protection from Abiotic Stress Induced by UV Radiation” (J Nat Prod, 2023).

What was measured:
[1] = system: Bacillus subtilis; assay: Antibacterial activity against Bacillus subtilis ATCC 6633 measured after 24 hrs; format: functional
[2] = system: Staphylococcus aureus; assay: Antibacterial activity against Staphylococcus aureus ATCC 25923 measured after 24 hrs; format: functional
[3] = system: Candida albicans; assay: Antifungal activity against Candida albicans ATCC 10231 measured after 24 hrs; format: functional
[4] = system: Saccharomyces cerevisiae; assay: Antifungal activity against Saccharomyces cerevisiae ATCC 9763 measured after 24 hrs; format: functional
[5] = Cytotoxicity against mouse NS-1 cells measured after 72 hrs; format: toxicity, cell-based
[6] = Cytotoxicity against […] NFF measured after 72 hrs; format: toxicity, cell-based; details: NFF cells
[7] = system: Tritrichomonas foetus; assay: Anti-protozoal Tritrichomonas foetus KV-1 measured after 24 hrs; format: functional
[8] = system: Eragrostis tef; assay: Herbicidal activity against Eragrostis tef seed measured after 24 hrs; details: in Eragrostis tef

Row | Compound | MIC [1] [µg/mL] | MIC [2] [µg/mL] | MIC [3] [µg/mL] | MIC [4] [µg/mL] | IC50 at 72 h [5] [µM] | IC50 at 72 h [6] [µM] | LD99 [7] [µg/mL] | MIC [8] [µg/mL]
1 | O=C(/C=C/C=C/c1ccc(O)cc1)NCCc1cc(O)c(Cl)c(=O)o1 | > 100 | > 100 | > 200 | > 200 | > 200 | > 200 | >100 | > 100
2 | O=C(/C=C/C=C/c1ccc(O)cc1)NCCc1cc(O)cc(=O)o1 | > 100 | > 100 | > 200 | > 200 | > 200 | > 200 | >100 | > 100
